# Legend:
# L-82 xenograft = L-82 xenograft with CD30 ADCs; type: in vivo, NOD/SCID mice; details: single i.v. dose 3 mg/kg (equal dosing)
# Method: Female NOD/SCID mice were used (8 mice/group) for the study. Animals were inoculated subcutaneously in the flank with 10 million cells in 50% PBS/50% Matrigel. When tumors reached an average volume of 100 mm^3, all animals were treated (Day 0) with a single 10 mg/kg intravenous dose of human IgG. Then, on Day 1, animals were treated with vehicle alone, with unconjugated antibody (3 mg/kg), or with an ADC at 1.5 or 3 mg/kg. The animals were monitored twice weekly for body weight and tumor size. Animals were euthanized when tumors reached 2000 mm^3. ADCs were highly efficacious in this study.
# Karpas 299 xenograft = Karpas 299 xenograft study with anti-CD30 ADCs; details: single i.v. dose 3 mg/kg (equal dosing)
# Granta 519 xenograft = test: First Granta xenograft study; type: in vivo; details: polatuzumab ADCs, single dose on Day 7, equal payload dosing levels
# Description: First Granta Xenograft Study Results: Polatuzumab ADCs carrying MMAE conjugated through five different linker types, including vedotin and CT aldehyde-tagged HIPS conjugates were compared for efficacy at equal payload dosing levels in a Granta 519 xenograft study.
# Male Sprague-Dawley rats = test: Multi-dose non-GLP rat toxicology study #1; type: in vivo; details: polatuzumab ADCs, DAR ~4, i.v. weekly for 4 doses (days 1, 8, 15, 22), equal payload/equal antibody dosing
Substance,complete responses (L-82 xenograft),complete responses (Karpas 299 xenograft),efficacy (tumor growth inhibition) (Granta 519 xenograft),tolerability (white and red blood cell parameters) (Male Sprague-Dawley rats)
Adcetris: anti-CD30 ADC used as comparator,8 complete responses out of 8 mice/group,6/6,,
polatuzumab vedotin,,,longest tumor growth inhibition,marked myelosuppression

# From US20250121090A1, “Antibody-Drug Conjugates and Methods of Use Thereof” (priority 2021, published 2025)
